Patent US20260176289A1, “SMALL MOLECULE INHIBITORS OF KRAS PROTEINS” (Merck Sharp & Dohme LLC, priority 2022, published 2026)

How the values were obtained:
[1] = biological target: KRAS-WT (Homo sapiens, UniProt P01116); assay: SOS-catalyzed nucleotide exchange assay (Procedure A, TR-FRET), KRAS-WT; assay type: biochemical; conditions: nucleotide exchange, read-out: KRAS WT GNE IC50
Method in brief: (§1)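 Inhibitors stabilizing the Bodipy-GDP state are detected as retained TR-FRET from a preformed biotinylated RAS/Tb-streptavidin complex. They are preincubated 60 min at room temperature, then human SOS and 3 mM GTP are added. G12V runs 90 min at 1.25 nM RAS/160 nM SOS. G12C (3 nM), WT (1 nM) and NRAS (1.25 nM) run 60 min with 40 nM SOS.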

[2] = biological target: KRAS-G12D (Homo sapiens, UniProt P01116, G12D); assay: SOS-catalyzed nucleotide exchange assay (Procedure A, TR-FRET), KRAS-G12D; assay type: biochemical; conditions: nucleotide exchange, read-out: KRAS G12D GNE IC50
KRAS-G12D, sequence (P01116 with tags, fused parts or gaps isoform P01116-2 G12D): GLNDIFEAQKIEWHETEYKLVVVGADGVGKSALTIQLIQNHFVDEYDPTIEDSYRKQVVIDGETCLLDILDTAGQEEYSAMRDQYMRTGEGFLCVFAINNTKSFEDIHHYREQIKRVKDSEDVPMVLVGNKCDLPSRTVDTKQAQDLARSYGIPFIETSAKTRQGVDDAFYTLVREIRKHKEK
Method in brief: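 Signal ratio (520/495 nm, excitation 340 nm) reports Bodipy-GDP retention on biotinylated RAS after SOS-catalyzed exchange with 3 mM GTP. SOS was 40 nM, except 160 nM for G12V. Room-temperature exchange lasted 60 min (90 min for G12V), following a 60 min compound preincubation.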

[3] = biological target: KRAS-G12V (Homo sapiens, UniProt P01116, G12V); assay: SOS-catalyzed nucleotide exchange assay (Procedure A, TR-FRET), KRAS-G12V; assay type: biochemical; conditions: nucleotide exchange, read-out: KRAS G12V GNE IC50
KRAS-G12V, sequence (P01116 with tags, fused parts or gaps isoform P01116-2 G12V): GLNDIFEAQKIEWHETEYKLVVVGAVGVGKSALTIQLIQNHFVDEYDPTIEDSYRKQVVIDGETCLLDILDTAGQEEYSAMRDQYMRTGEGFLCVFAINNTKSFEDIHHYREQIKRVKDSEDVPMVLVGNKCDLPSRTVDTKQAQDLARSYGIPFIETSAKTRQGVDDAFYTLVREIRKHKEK
Method in brief: as §1

[4] = test system: MKN-1 cells; assay: Cellular phospho-ERK assay, MKN-1 cells (amplified wild-type KRAS); assay type: cell-based; conditions: Homo sapiens, amplified wild-type KRAS, 2 hours, read-out: MKN1 pERK IC50
Procedure: (§2) Procedure for Cellular Phospho-ERK Assay in KRAS Wild Type and Mutant (G12D, G12V) Cell Lines
(§3) MKN-1 cells (JCRB JCRB0252) containing amplified wild-type KRAS, were cultured in growth medium that contains RPMI 1640-GlutaMAX™-I (ThermoFisher Scientific 61870) containing 10% heat inactivated fetal bovine serum (ThermoFisher Scientific 10091148), 1 mM sodium pyruvate and 10 mM HEPES. PANC08.13 cells (ATCC® CRL-2551™), containing homozygous KRAS-G12D activating mutation, were cultured in growth medium made of RPMI1640-GlutaMAX™-I (ThermoFisher Scientific 61870) containing 15% heat inactivated fetal bovine serum (ThermoFisher Scientific 10091148)). AsPC-1 cells (ATCC® CRL-1682™), containing homozygous KRAS-G12D activating mutation, were cultured in T150 flask in growth medium (RPMI medium 1640-GlutaMAX™-I (ThermoFisher Scientific 61870) containing 10% fetal bovine serum (ThermoFisher Scientific 10091148)). SW620 cells (ATCC® […]), containing homozygous KRAS-G12V activating mutation, were cultured in growth medium that contains RPMI 1640-GlutaMAX™-I (ThermoFisher Scientific 61870) containing 10% heat inactivated fetal bovine serum (ThermoFisher Scientific 10091148).
(§4) Cells for the assay were harvested in growth medium after TrypLE (ThermoFisher scientific 12604021) digestion and were seeded in a 384-well collagen coated cell culture plate (Corning 356702) at a density of 10,000-15,000 cells/20 μL/well, and incubated at 37° C., 5% CO2 overnight. The compound (with 10 mM stock concentration) dose-response titrations were prepared [30 μM final ERK detection assay concentration and 1:3 dilutions, 10-point dose response] and appropriate amounts (270 nL) of test compounds were dispensed in a 384-well intermediate plate using an Echo 550 liquid handler. 30 μL/well of RPMI medium 1640-GlutaMAX™—I was added to the intermediate plate and the contents of the intermediate plate (10 μL/well) were then transferred to the 384-well collagen coated cell culture plate, which was incubated at 37° C., 5% CO2 for 2 hours. After removal of medium from the collagen coated cell culture plate, cells were lysed in lysis buffer from Alpha SureFire® Ultra™ Multiplex p-ERK and total ERK assay kit (PerkinElmer MPSU-PTERK) containing Halt™ Protease and Phosphatase inhibitor cocktail (ThermoFisher Scientific 78446) at room temperature with constant shaking at 300 rpm for 30 minutes. The cell lysates were then transferred to an OptiPlate-384 plate (PerkinElmer 6005620), and the phosphorylation of ERK (p-ERK) and total ERK levels were detected by Alpha SureFire® Ultra™ Multiplex p-EEK kit and total ERK assay kit (PerkinElmer MPSU-PTERK) following the manufacturer's protocol. Assay plates were read on a En Vision Multimode Plate Reader (PerkinElmer), and the ratio of p-ERK vs. total ERK in each well was used as the final readout. Dose response curves were analyzed using a 4-parameter logistic model to calculate IC50 values using Spotfire software.

[5] = test system: AsPC-1 cells; assay: Cellular phospho-ERK assay, AsPC-1 cells (homozygous KRAS-G12D); assay type: cell-based; conditions: Homo sapiens, ASPC1, 2 h, KRAS-G12D, 2 hours, read-out: AsPC1 pERK IC50
Method in brief: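 ERK phosphorylation relative to total ERK is the endpoint, detected by AlphaScreen-based SureFire multiplex following a 2-hour treatment at 37 °C. Compounds are titrated 1:3 over ten points from 30 μM.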

[6] = test system: SW620 cells; assay: Cellular phospho-ERK assay, SW620 cells (homozygous KRAS-G12V); assay type: cell-based; conditions: Homo sapiens, SW-620, KRAS-G12V, 2 hours, read-out: SW620 pERK IC50
Procedure: as §2, §3, §4

KRAS-WT, sequence (P01116 with tags, fused parts or gaps isoform P01116-2): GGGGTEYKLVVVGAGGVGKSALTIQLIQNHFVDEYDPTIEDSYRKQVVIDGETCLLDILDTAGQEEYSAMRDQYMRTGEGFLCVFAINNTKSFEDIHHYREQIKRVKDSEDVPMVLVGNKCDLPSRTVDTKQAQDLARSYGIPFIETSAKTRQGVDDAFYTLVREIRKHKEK

| SMILES | IC50 [1] [nM] | IC50 [2] [nM] | IC50 [3] [nM] | IC50 [4] [nM] | IC50 [5] [nM] | IC50 [6] [nM] |
| --- | --- | --- | --- | --- | --- | --- |
| Cc1c2nc(OC[C@@]34CCCN3C[C@H](F)C4)nc(N3CCOC[C@@](C)(O)C3)c2n2ccnc(-c3c(C4CC4)c(Cl)cc4[nH]ncc34)c12 (single isomer, unassigned) [Ex-302] | 18.6 | 8.99 | 17 | 49.5 | 135 | 48.9 |
| Cc1c(C(F)(F)F)c(-c2nccc3c2sc2nc(OC[C@@]45CCCN4C[C@H](F)C5)nc(N4CCOC[C@@](C)(O)C4)c23)c2cn[nH]c2c1F [Ex-44, (6S)-4-(8-(7-fluoro-6-methyl-5-(trifluoromethyl)-1H-indazol-4-yl)-2-(((2R,7aS)-2-fluorotetrahydro-1H-pyrrolizin-7a(5H)-yl)methoxy)pyrido[4′,3′:4,5]thi-eno[2,3-d]pyrimidin-4-yl)-6-methyl-1,4-oxazepan-6-ol] | 281 | 141 | 242 | 373 | 452 | 281 |
| CCc1cc2[nH]ncc2c(-c2nccc3c2sc2nc(OC[C@@]45CCCN4C[C@H](F)C5)nc(N4CCOC[C@@](C)(O)C4)c23)c1C1CC1 [Ex-48, (6S)-4-(8-(5-cyclopropyl-6-ethyl-1H-indazol-4-yl)-2-(((2R,7aS)-2-fluorotetrahydro-1H-pyrrolizin-7a(5H)-yl)methoxy)pyrido[4′,3′:4,5]thi-eno[2,3-d]pyrimidin-4-yl)-6-methyl-1,4-oxazepan-6-ol] | 50.4 | 18.2 | 28.5 | 123 | 153 | 106 |
| Cc1cc2[nH]ncc2c(-c2nccc3c2sc2nc(OC[C@@]45CCCN4C[C@H](F)C5)nc(N4CCOC[C@@](C)(O)C4)c23)c1C1(F)CC1 [Ex-54, (6S)-4-(8-(5-(1-fluorocyclopropyl)-6-methyl-1H-indazol-4-yl)-2-(((2R,7aS)-2-fluorotetrahydro-1H-pyrrolizin-7a(5H)-yl)methoxy)pyrido[4′,3′:4,5]thi-eno[2,3-d)pyrimidin-4-yl)-6-methyl-1,4-oxazepan-6-ol] | 10.8 | 5.06 | 11.1 | 56.5 | 84.6 | 186 |
| C[C@@]1(O)COCCN(c2nc(OC[C@@]34CCCN3C[C@H](F)C4)nc3sc4c(-c5c(C6(F)CC6)c(C(F)(F)F)cc6[nH]ncc56)nccc4c23)C1 [Ex-55, (6S)-4-(8-(5-(1-fluorocyclopropyl)-6-(trifluoromethyl)-1H-indazol-4-yl)-2-(((2R,7aS)-2-fluorotetrahydro-1H-pyrrolizin-7a(5H)-yl)methoxy)pyrido[4′,3′:4,5]thi-eno[2,3-d]pyrimidin-4-yl)-6-methyl-1,4-oxazepan-6-ol] | 26.4 | 9.34 | 18.2 | 45 | 107 | 45.9 |
| Cc1cc2[nH]ncc2c(-c2nccc3c2sc2nc(OC[C@@]45CCCN4C[C@H](F)C5)nc(N4CCOC[C@@](C)(O)C4)c23)c1C1(C)CC1 [Ex-62, (6S)-4-(2-(((2R,7aS)-2-fluorotetrahydro-1H-pyrrolizin-7a(5H)-yl)methoxy)-8-(6-methyl-5-(1-methylcyclopropyl)-1H-indazol-4-yl)pyrido[4′,3′:4,5]thieno [2,3-d]pyrimidin-4-yl)-6-methyl-1,4-oxazepan-6-ol] | 53.7 | 29.8 | 21.7 | 251 | 175 | 131 |
| Cc1cc2[nH]ncc2c(-c2nccc3c2sc2nc(OC[C@@]45CCCN4C[C@H](F)C5)nc(N4CCOC[C@@](C)(O)C4)c23)c1C1CC1(F)F (stereo partly drawn) [Ex-63, (6S)-4-(8-(5-(2,2-difluorocyclopropyl)-6-methyl-1H-indazol-4-yl)-2-(((2R,7aS)-2-fluorotetrahydro-1H-pyrrolizin-7a(5H)-yl)methoxy)pyrido[4′,3′:4,5]thi-eno[2,3-d]pyrimidin-4-yl)-6-methyl-1,4-oxazepan-6-ol] | 55.2 | 19.6 | 39.3 | 114 | 185 | 121 |
